Experimental data from publication PMC12683216, “Using High‐Throughput Screening to Identify Crosslinking Peptides That Control Cell‐Mediated Matrix Degradation” (Advanced Healthcare Materials, 2025).
Where a SMILES comes first, the peptide text is derived from it. [ ]: non-standard residue; d: D form. βAla = NCCC(=O)O

Experiments:
hMSCs = experiment: Cell growth and viability within peptide-crosslinked hydrogels; assay type: cell-based, human; settings: 3.5% 8-arm PEG, 40% arms crosslinking peptide, 10% cyclic RGD, 20 million cells mL^−1, up to Day 7
Source text: (§1) Each of the peptides was then used to crosslink hydrogels containing hMSCs or hUVECs at 20 million cells mL^−1 and cultured for 1, 3, or 7 days. To maximize cell spreading, we made soft hydrogels that were 3.5% 8‐arm poly(ethylene glycol) (PEG) by weight. 40% of the arms were reacted with the crosslinking peptides, and 10% of the arms were functionalized with a cyclic RGD peptide for cell adhesion. […] This supports the inhibitor studies for the soluble peptides in which the MMP‐14 inhibitor completely abolished the degradation of the KLVAD‐LM peptide by hUVECs, but not the PanMMP peptide. (Figure 3C).
(§2) For all hydrogel studies, the total volume of hydrogel was 20 µL, made with 3.5% (wt/wt) PEG, 40% of the arms were functionalized with crosslinking peptides, and 10% were functionalized with cyclic‐RGD, with a final cell concentration of 20 million cells per mL. Briefly, the PEG was dissolved at 140 mg mL^−1 in PBS, the crosslinking peptides were dissolved at 22.4 mM in PBS, and the cyclic RGD was dissolved at 5.6 mM in PBS. hMSCs were harvested from T‐75 flasks. After centrifugation and pouring the supernatant liquid, the cells were resuspended at 80 000 000 or 4 000 000 cells mL^−1. The cyclic RGD and PEG PBS solutions were mixed at the ratio of 1:1. Add 10 µL of the PEG‐cyclic RGD mixer in the wells and incubate for 10 mins. The crosslinking peptides and cell solutions were mixed at a ratio of 1:1. 10 µL of the peptide‐cell mixture was pipetted into the PEG‐cyclic RGD mixer previously dropped in the wells. The solutions were pipetted until well mixed, and after 15 min in the incubator 1 mL of media was added into each well and kept in the incubator. For gels intended for imaging, 12 mm round glass coverslips were placed in each well of the 24‐well plates prior to hydrogel fabrication. For cell viability test, sylgard layers were prepared in 24 well plates to prevent unwanted cell growth on the bottom of the well wall. Sylgard kit Part A/Part B was mixed in a 10:1 ratio by volume, and the mixture was added to the 24 well plates such that the bottom of each well was completely covered by Sylgard. The plates were placed in a biosafety hood overnight with UV light on. For all studies, three technical replicates were done per condition, and the studies were repeated three times.
(§3) The hydrogels were washed with PBS three times and incubated in 4% formaldehyde in PBS for 20 min. The hydrogels were again washed with PBS three times, followed by an incubation in 0.25% Triton X‐100 in PBS solution for 20 min. The hydrogels were washed with PBS three times, followed by a 20‐min incubation of in 1% BSA in PBS. The gels were washed 3x in PBS, and 700 µL of Phalloidin/DAPI PBS staining solution (0.1% BSA, 1 µg mL^−1 DAPI, and 1 µg mL^−1 phalloidin‐iFluor 555) was added to each well, and it was incubated for 1 h in the dark at room temperature. The hydrogels were washed 3x, and 1 mL PBS was added to each well, and they were stored in a 4 °C until they were ready for imaging.
(§4) Hydrogels were imaged by confocal microscope (LSM 800, AxioObserver, EC Olan‐Neofluar 10x/0.3 objective). The 12 mm round slides with hydrogels were taken out of 24 well plates and flipped gel side down on round‐bottom slides. Confocal microscopy was carried out in the Z‐stack mode. Phalloidin was excited at 488 nm and recorded between 493 and 630 nm. DAPI was excited at 405 nm and recorded between 410 and 501 nm. Cells in each hydrogel were measured with ImageJ software according to the particle analysis results and then averaged to obtain the mean cell area in the hydrogels.
(§5) On Days 1, 3, and 7, the media from the wells was removed and 500 µL of a 10× diluted Alamar Blue stock solution in media was added to each well with hydrogels. Three wells without any cells were used for background subtraction. The gels were incubated for 4 h, at which time the absorbance was measured with a spectrophotometer at a wavelength of 579 nm (600 nm reference). […]

hUVECs = experiment: as above; assay type: cell-based, human; settings: 3.5% 8-arm PEG, 40% arms crosslinking peptide, 10% cyclic RGD, 20 million cells mL^−1, up to Day 7
Source text: as §1, §2, §3, §4, §5

Compound	cell spreading, growth and viability of hMSCs in crosslinked hydrogels (hMSCs)	cell spreading, growth and viability of hUVECs in crosslinked hydrogels (hUVECs)
CSCC[C@H](NC(=O)[C@H](CC(C)C)NC(=O)[C@H](CC(=O)O)NC(=O)[C@H](C)NC(=O)[C@@H](NC(=O)[C@H](CC(C)C)NC(=O)[C@H](CCCCN)NC(=O)CCNC(C)=O)C(C)C)C(=O)N[C@@H](C)C(=O)N[C@@H](CO)C(=O)N[C@@H](C)C(=O)N[C@@H](CCC(=O)O)C(=O)NCCC(N)=O [KLVAD-LM] (Ac-[βAla]KLVADLMASAE[βAla]-NH2)	supported cell spreading and growth	supported cell spreading and growth
CC(=O)NCCC(=O)N[C@@H](CCCCN)C(=O)N[C@@H](CC(C)C)C(=O)N[C@H](C(=O)N[C@@H](C)C(=O)N[C@@H](CC(=O)O)C(=O)N[C@@H](CC(N)=O)C(=O)N[C@@H](Cc1ccc(O)cc1)C(=O)N[C@@H](C)C(=O)N[C@@H](CO)C(=O)N[C@@H](C)C(=O)N[C@@H](CCC(=O)O)C(=O)NCCC(N)=O)C(C)C [KLVAD-NY] (Ac-[βAla]KLVADNYASAE[βAla]-NH2)	no detectable cells	only minimal cell spreading
CC(=O)NCCC(=O)N[C@@H](CCCCN)C(=O)N[C@@H](CC(C)C)C(=O)N[C@H](C(=O)N[C@@H](C)C(=O)N[C@@H](CC(=O)O)C(=O)N1CCC[C@H]1C(=O)N[C@@H](Cc1ccc(O)cc1)C(=O)N[C@@H](C)C(=O)N[C@@H](CO)C(=O)N[C@@H](C)C(=O)N[C@@H](CCC(=O)O)C(=O)NCCC(N)=O)C(C)C [KLVAD-PY] (Ac-[βAla]KLVADPYASAE[βAla]-NH2)	less cell spreading and viability	less cell spreading and viability
